Experiments:
Assay in all cases: relative viability (nuclei count vs DMSO), 5 days (fraction); higher = more cells survive
NCI-H2347 = tested on: NCI-H2347
How it was run: (§1)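 After 5 days of treatment, lung cancer cells in 1536-well plates were fixed and stained in a single step (final 0.05% Triton X-100, 1% formaldehyde, 1 ug/ml Hoechst) and their nuclei counted on 4× images. Treatment had been applied by pin tool the day after seeding as one drug alone or as a fixed anchor-drug dose with five library-drug doses (not always all listed) in √10 steps. Relative viability is the nuclei count of treated wells divided by that of vehicle wells, and values are medians of duplicate plates.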

HARA = tested on: HARA
How it was run: as §1

HCC-44 = tested on: HCC-44
How it was run: as §1

NCI-H441 = tested on: NCI-H441
How it was run: as §1

NCI-H647 = tested on: NCI-H647
How it was run: as §1

201T = tested on: 201T
How it was run: as §1

NCI-H727 = tested on: NCI-H727
How it was run: as §1

NCI-H2023 = tested on: NCI-H2023
How it was run: as §1

LCLC-103H = tested on: LCLC-103H
How it was run: as §1

NCI-H2087 = tested on: NCI-H2087
How it was run: as §1

NCI-H1666 = tested on: NCI-H1666
How it was run: as §1

NCI-H3122 = tested on: NCI-H3122
How it was run: as §1

NCI-H838 = tested on: NCI-H838
How it was run: as §1

NCI-H2126 = tested on: NCI-H2126
How it was run: as §1

BEN = tested on: BEN
How it was run: as §1

NCI-H2009 = tested on: NCI-H2009
How it was run: as §1

LOU-NH91 = tested on: LOU-NH91
How it was run: as §1

NCI-H23 = tested on: NCI-H23
How it was run: as §1

EMC-BAC-2 = tested on: EMC-BAC-2
How it was run: as §1

NCI-H1993 = tested on: NCI-H1993
How it was run: as §1

NCI-H596 = tested on: NCI-H596
How it was run: as §1

NCI-H650 = tested on: NCI-H650
How it was run: as §1

NCI-H1395 = tested on: NCI-H1395
How it was run: as §1

SMILES: CC1(C)CCC(c2ccc(Cl)cc2)=C(CN2CCN(c3ccc(C(=O)NS(=O)(=O)c4ccc(N[C@H](CCN5CCOCC5)CSc5ccccc5)c(S(=O)(=O)C(F)(F)F)c4)cc3)CC2)C1 [Navitoclax] + N=C(N)NC(=N)NCCc1ccccc1 [Phenformin] (partner 250 µM)
- relative viability (NCI-H2347; first compound 0.005 µM): 0.452
- relative viability (NCI-H2347; first compound 0.01581 µM): 0.567
- relative viability (NCI-H2347; first compound 0.1581 µM): 0.321
- relative viability (NCI-H2347; first compound 0.5 µM): 0.482
- relative viability (HARA; first compound 0.005 µM): 0.491
- relative viability (HARA; first compound 0.01581 µM): 0.554
- relative viability (HARA; first compound 0.1581 µM): 0.415
- relative viability (HARA; first compound 0.5 µM): 0.477
- relative viability (HCC-44; first compound 0.005 µM): 0.173
- relative viability (HCC-44; first compound 0.01581 µM): 0.184
- relative viability (HCC-44; first compound 0.05 µM): 0.185
- relative viability (HCC-44; first compound 0.1581 µM): 0.131
- relative viability (HCC-44; first compound 0.5 µM): 0.197
- relative viability (NCI-H441; first compound 0.005 µM): 0.919
- relative viability (NCI-H441; first compound 0.01581 µM): 1.14
- relative viability (NCI-H441; first compound 0.05 µM): 0.846
- relative viability (NCI-H441; first compound 0.1581 µM): 0.851
- relative viability (NCI-H441; first compound 0.5 µM): 0.818
- relative viability (NCI-H647; first compound 0.005 µM): 0.536
- relative viability (NCI-H647; first compound 0.01581 µM): 0.488
- relative viability (NCI-H647; first compound 0.05 µM): 0.651
- relative viability (NCI-H647; first compound 0.1581 µM): 0.323
- relative viability (NCI-H647; first compound 0.5 µM): 0.445
- relative viability (201T; first compound 0.005 µM): 0.447
- relative viability (201T; first compound 0.01581 µM): 0.458
- relative viability (201T; first compound 0.05 µM): 0.456
- relative viability (201T; first compound 0.1581 µM): 0.438
- relative viability (201T; first compound 0.5 µM): 0.492
- relative viability (NCI-H727; first compound 0.01581 µM): 0.804
- relative viability (NCI-H727; first compound 0.1581 µM): 0.479
- relative viability (NCI-H727; first compound 0.5 µM): 0.394
- relative viability (NCI-H2023; first compound 0.005 µM): 0.432
- relative viability (NCI-H2023; first compound 0.01581 µM): 0.447
- relative viability (NCI-H2023; first compound 0.05 µM): 0.382
- relative viability (NCI-H2023; first compound 0.1581 µM): 0.425
- relative viability (NCI-H2023; first compound 0.5 µM): 0.428
- relative viability (LCLC-103H; first compound 0.005 µM): 0.342
- relative viability (LCLC-103H; first compound 0.01581 µM): 0.359
- relative viability (LCLC-103H; first compound 0.05 µM): 0.314
- relative viability (LCLC-103H; first compound 0.1581 µM): 0.322
- relative viability (LCLC-103H; first compound 0.5 µM): 0.338
- relative viability (NCI-H2087; first compound 0.005 µM): 0.475
- relative viability (NCI-H2087; first compound 0.01581 µM): 0.452
- relative viability (NCI-H2087; first compound 0.1581 µM): 0.407
- relative viability (NCI-H2087; first compound 0.5 µM): 0.428
- relative viability (NCI-H1666; first compound 0.005 µM): 0.604
- relative viability (NCI-H1666; first compound 0.01581 µM): 0.573
- relative viability (NCI-H1666; first compound 0.05 µM): 0.511
- relative viability (NCI-H1666; first compound 0.1581 µM): 0.534
- relative viability (NCI-H1666; first compound 0.5 µM): 0.559
- relative viability (NCI-H3122; first compound 0.005 µM): 0.402
- relative viability (NCI-H3122; first compound 0.01581 µM): 0.423
- relative viability (NCI-H3122; first compound 0.05 µM): 0.306
- relative viability (NCI-H3122; first compound 0.1581 µM): 0.348
- relative viability (NCI-H3122; first compound 0.5 µM): 0.391
- relative viability (NCI-H838; first compound 0.005 µM): 0.529
- relative viability (NCI-H838; first compound 0.01581 µM): 0.735
- relative viability (NCI-H838; first compound 0.05 µM): 0.757
- relative viability (NCI-H838; first compound 0.1581 µM): 0.749
- relative viability (NCI-H838; first compound 0.5 µM): 0.664
- relative viability (NCI-H2126; first compound 0.005 µM): 0.527
- relative viability (NCI-H2126; first compound 0.01581 µM): 0.53
- relative viability (NCI-H2126; first compound 0.05 µM): 0.45
- relative viability (NCI-H2126; first compound 0.1581 µM): 0.42
- relative viability (NCI-H2126; first compound 0.5 µM): 0.444
- relative viability (BEN; first compound 0.005 µM): 0.246
- relative viability (BEN; first compound 0.01581 µM): 0.265
- relative viability (BEN; first compound 0.05 µM): 0.248
- relative viability (BEN; first compound 0.1581 µM): 0.294
- relative viability (BEN; first compound 0.5 µM): 0.232
- relative viability (NCI-H2009; first compound 0.005 µM): 0.495
- relative viability (NCI-H2009; first compound 0.01581 µM): 0.519
- relative viability (NCI-H2009; first compound 0.05 µM): 0.435
- relative viability (NCI-H2009; first compound 0.1581 µM): 0.47
- relative viability (NCI-H2009; first compound 0.5 µM): 0.484
- relative viability (LOU-NH91; first compound 0.005 µM): 0.8
- relative viability (LOU-NH91; first compound 0.01581 µM): 0.693
- relative viability (LOU-NH91; first compound 0.05 µM): 0.636
- relative viability (LOU-NH91; first compound 0.1581 µM): 0.652
- relative viability (LOU-NH91; first compound 0.5 µM): 0.427
- relative viability (NCI-H23; first compound 0.005 µM): 0.759
- relative viability (NCI-H23; first compound 0.01581 µM): 0.818
- relative viability (NCI-H23; first compound 0.05 µM): 0.662
- relative viability (NCI-H23; first compound 0.1581 µM): 0.783
- relative viability (NCI-H23; first compound 0.5 µM): 0.799
- relative viability (EMC-BAC-2; first compound 0.005 µM): 0.496
- relative viability (EMC-BAC-2; first compound 0.01581 µM): 0.604
- relative viability (EMC-BAC-2; first compound 0.05 µM): 0.523
- relative viability (EMC-BAC-2; first compound 0.1581 µM): 0.498
- relative viability (EMC-BAC-2; first compound 0.5 µM): 0.489
- relative viability (NCI-H1993; first compound 0.005 µM): 0.545
- relative viability (NCI-H1993; first compound 0.01581 µM): 0.498
- relative viability (NCI-H1993; first compound 0.05 µM): 0.629
- relative viability (NCI-H1993; first compound 0.1581 µM): 0.587
- relative viability (NCI-H1993; first compound 0.5 µM): 0.616
- relative viability (NCI-H596; first compound 0.005 µM): 0.742
- relative viability (NCI-H596; first compound 0.01581 µM): 0.71
- relative viability (NCI-H596; first compound 0.1581 µM): 0.67
- relative viability (NCI-H596; first compound 0.5 µM): 0.815
- relative viability (NCI-H650; first compound 0.005 µM): 0.447
- relative viability (NCI-H650; first compound 0.01581 µM): 0.473
- relative viability (NCI-H650; first compound 0.05 µM): 0.456
- relative viability (NCI-H650; first compound 0.1581 µM): 0.456
- relative viability (NCI-H650; first compound 0.5 µM): 0.504
- relative viability (NCI-H1395; first compound 0.005 µM): 0.461
- relative viability (NCI-H1395; first compound 0.01581 µM): 0.501
- relative viability (NCI-H1395; first compound 0.05 µM): 0.451
- relative viability (NCI-H1395; first compound 0.1581 µM): 0.455
- relative viability (NCI-H1395; first compound 0.5 µM): 0.497
